Experimental data taken from US20180206495A1, “SUBSTITUTED ARYL AND HETEROARYL CARBOXYLIC ACID HYDRAZIDES OR SALTS THEREOF AND USE THEREOF TO INCREASE STRESS TOLERANCE IN PLANTS” (BAYER CROPSCIENCE AKTIENGESELLSCHAFT, priority 2015, published 2018).

Tests used:
[1] = tested on: Zea mays; assay: In vivo analyses Part A: drought stress, spray application, visual damage scoring, Zea mays
Procedure: (§1) Seeds of monocotyledonous and dicotyledonous crop plants were sown in sandy loam in wood-fiber or plastic pots, covered with soil or sand and cultivated in a greenhouse under good growth conditions. The trial plants were treated at the early leaf stage (BBCH10-BBCH13). To assure uniform water supply before commencement of stress, the potted plants were supplied with water by dam irrigation prior to substance application. The inventive compounds formulated in the form of wettable powders (WP) were sprayed onto the green parts of the plants as an aqueous suspension at an equivalent water application rate of 600 l/ha with addition of 0.2% wetting agent (e.g. agrotin). Substance application was followed immediately by stress treatment of the plants. For this purpose, the wood-fiber pots were transferred in plastic inserts in order to prevent them from subsequently drying out too quickly. Drought stress was induced by gradual drying out under the following conditions: “Day”: 14 hours with illumination at ˜26-30° C. “Night”: 10 hours without illumination at ˜18-20° C. The duration of the respective stress phases was guided mainly by the condition of the stressed control plants. It was ended (by re-irrigating and transfer to a greenhouse with good growth conditions) as soon as irreversible damage was observed on the stressed control plants. The end of the stress phase was followed by an about 4-7-day recovery phase, during which the plants were once again kept under good growth conditions in a greenhouse. The duration of the recovery phase was guided mainly by when the trial plants had attained a state which enabled visual scoring of potential effects, and is therefore variable. Once this juncture was reached, the intensities of damage were scored visually in comparison to untreated, unstressed controls of the same age. The damage intensity was at first assessed in per cent. These values were then used to calculate the efficacy of the test compounds by the following formula: [formula] EF: Efficacy DIs: Damage intensity of the stressed control plants DIt: Damage intensity of the stressed plants treated with test compound The values reported in tables A-1 to A-3 below are mean values from at least one trial with at least two repeats, showing the effects of selected compounds of the general formula (I) under drought stress on various crop plants.

[2] = tested on: Triticum aestivum; assay: In vivo analyses Part B: drought stress, spray application, appearance vs stressed control in categories, Triticum aestivum; parameters: key: 0: no positive effect; +: slight positive effect; ++: clear positive effect; +++: strong positive effect
Procedure: (§2) Seeds of monocotyledonous and dicotyledonous crop plants were sown in sandy loam in plastic pots, covered with soil or sand and cultivated in a greenhouse under good growth conditions. The test plants are treated at the early leaf stage (BBCH10-BBCH13). To assure uniform water supply before commencement of stress, the potted plants were supplied with water by dam irrigation prior to substance application. The inventive compounds were first formulated as wettable powders (WP) or dissolved in a solvent mixture. The further dilution was effected with water supplemented with 0.2% wetting agent (e.g. agrotin). The finished spray liquor was sprayed onto the green parts of the plant at an equivalent water application rate of 600 l/ha. Substance application was followed immediately by stress treatment of the plants. Drought stress was induced by gradual drying out under the following conditions: “Day”: 14 hours with illumination at ˜26-30° C. “Night”: 10 hours without illumination at ˜18-20° C. The duration of the respective stress phases was guided mainly by the condition of the stressed control plants. It was ended (by re-irrigating and transfer to a greenhouse with good growth conditions) as soon as irreversible damage was observed on the stressed control plants. The end of the stress phase was followed by an about 4-7-day recovery phase, during which the plants were once again kept under good growth conditions in a greenhouse. The duration of the recovery phase was guided mainly by when the trial plants had attained a state which enabled visual scoring of potential effects, and was therefore variable. Once this juncture had been reached, the appearance of the plants treated with test substances was recorded in comparison to the stressed control plants by the following categories: • 0 no positive effect • + slight positive effect • ++ clear positive effect • +++ strong positive effect In order to rule out any influence on the effects observed by any fungicidal or insecticidal action of the test compounds, it was additionally ensured that the tests proceeded without fungal infection or insect infestation. The values reported in tables B-1 and B-2 below are mean values of the results from at least three repeats. Effects of selected compounds of the general formula (I) under drought stress according to the following tables B-1 and B-2: […]

[3] = tested on: Brassica napus; assay: In vivo analyses Part B: drought stress, spray application, appearance vs stressed control in categories, Brassica napus; parameters: key: 0: no positive effect; +: slight positive effect; ++: clear positive effect; +++: strong positive effect
Procedure: as §2

[4] = tested on: Brassica napus; assay: In vivo analyses Part A: drought stress, spray application, visual damage scoring, Brassica napus
Procedure: as §1

[5] = tested on: Triticum aestivum; assay: In vivo analyses Part A: drought stress, spray application, visual damage scoring, Triticum aestivum; conditions: dosage 250 g/ha
Procedure: as §1

## CN(C)N(Cc1c(Cl)cccc1Cl)C(=O)c1ccccc1C(F)(F)F [A1-7]
[1]; dosage 250 g/ha
  EF [%] (ZEAMX): >5%

## CN(C)N(Cc1c(Cl)cc(C(F)(F)F)c(F)c1F)C(=O)c1ccc(F)cc1C(F)(F)F [A14-608]
[2]; dosage 25 g/ha
  Effect (TRZAS): +
[3]; dosage 25 g/ha
  Effect (BRSNS): +

## CN(C)N(Cc1cccc(C#N)c1)C(=O)c1ccncc1 [C1-62]
[4]; dosage 2.5 g/ha
  EF [%] (BRSNS): >5%

## COc1c(C)cnc(CN(C(=O)c2ccccc2Cl)N(C)C)c1C [A10-37]
[1]; dosage 250 g/ha
  EF [%] (ZEAMX): >5%

## CN(C)N(Cc1ccc2ccccc2n1)C(=O)c1cccc([N+](=O)[O-])c1 [A33-122]
[1]; dosage 25 g/ha
  EF [%] (ZEAMX): >5%
[4]; dosage 250 g/ha
  EF [%] (BRSNS): >5%

## COc1cc(OC)nc(CN(C(=O)c2ccccc2Cl)N(C)C)n1 [A10-30]
[5]
  EF [%] (TRZAS): >5%

## CN(C)N(Cc1ccccc1Cl)C(=O)c1ccccc1[N+](=O)[O-] [A32-1]
[1]; dosage 250 g/ha
  EF [%] (ZEAMX): >5%

## CN(C)N(Cc1c(F)cccc1F)C(=O)c1cnccc1C(F)(F)F [B1-17]
[2]; dosage 250 g/ha
  Effect (TRZAS): +
[3]; dosage 250 g/ha
  Effect (BRSNS): ++

## CN(C)N(CCc1cccc(Cl)c1)C(=O)c1ccccc1C(F)(F)F [A1-613]
[1]; dosage 250 g/ha
  EF [%] (ZEAMX): >5%

## CN(C)N(Cc1ccc(Cl)cc1)C(=O)c1ccncc1 [C1-3]
[1]; dosage 25 g/ha
  EF [%] (ZEAMX): >5%
[4]; dosage 250 g/ha
  EF [%] (BRSNS): >5%

## CN(C)N(Cc1ccc2ccccc2n1)C(=O)c1cc(Cl)ccc1Cl [A7-122]
[4]; dosage 25 g/ha
  EF [%] (BRSNS): >5%

## CN(C)N(Cc1ccc(Cl)nc1Cl)C(=O)c1ccc(F)cc1C(F)(F)F [A14-99]
[2]; dosage 25 g/ha
  Effect (TRZAS): +
[3]; dosage 250 g/ha
  Effect (BRSNS): +

## CN(C)N(Cc1ncc(C(F)(F)F)cc1Cl)C(=O)c1ccncc1C(F)(F)F [C2-36]
[4]; dosage 25 g/ha
  EF [%] (BRSNS): >5%

## Cc1ccc(CCN(C(=O)c2ccc(Cl)cc2)N(C)C)cc1C [A9-663]
[1]; dosage 250 g/ha
  EF [%] (ZEAMX): >5%

## CN(C)N(Cc1ccccc1C#N)C(=O)c1ccc(C(F)(F)F)nc1 [B5-61]
[2]; dosage 25 g/ha
  Effect (TRZAS): +
[3]; dosage 25 g/ha
  Effect (BRSNS): +

## COc1ccccc1C(=O)N(Cc1ccc(F)cc1F)N(C)C [A8-15]
[2]; dosage 25 g/ha
  Effect (TRZAS): ++
[3]; dosage 250 g/ha
  Effect (BRSNS): +

## Cc1ccc(C(=O)N(Cc2nccc(Cl)c2Cl)N(C)C)c(C(F)(F)F)c1 [A50-40]
[2]; dosage 250 g/ha
  Effect (TRZAS): +
[3]; dosage 25 g/ha
  Effect (BRSNS): ++

## CN(C)N(Cc1ncc(Cl)cc1Cl)C(=O)c1cccc(Cl)c1 [A28-35]
[1]; dosage 250 g/ha
  EF [%] (ZEAMX): >5%
[4]; dosage 250 g/ha
  EF [%] (BRSNS): >5%

## CN(C)N(Cc1cc(C(F)(F)F)ccc1Cl)C(=O)c1ccc(Cl)cc1Cl [A12-86]
[4]; dosage 25 g/ha
  EF [%] (BRSNS): >5%

## CN(C)N(Cc1ccccc1C#N)C(=O)c1ccc(Cl)cc1C(F)(F)F [A51-61]
[2]; dosage 25 g/ha
  Effect (TRZAS): +
[3]; dosage 25 g/ha
  Effect (BRSNS): ++

## COc1cc(Cl)c(CN(C(=O)c2ccccc2C(F)(F)F)N(C)C)cc1OC [A1-147]
[1]; dosage 250 g/ha
  EF [%] (ZEAMX): >5%
[4]; dosage 25 g/ha
  EF [%] (BRSNS): >5%

## CN(C)N(Cc1ccc(Cl)cc1Cl)C(=O)c1ccccc1I [A36-5]
[2]; dosage 250 g/ha
  Effect (TRZAS): +
[3]; dosage 250 g/ha
  Effect (BRSNS): ++

## CN(C)N(CCc1ccc(C(C)(C)C)cc1)C(=O)c1ccc(Cl)cc1 [A9-639]
[1]; dosage 250 g/ha
  EF [%] (ZEAMX): >5%

## CN(C)N(CCc1ccc(Cl)cc1)C(=O)c1ccc(Cl)cc1 [A9-614]
[4]; dosage 250 g/ha
  EF [%] (BRSNS): >5%

## CN(C)N(Cc1ccccc1Cl)C(=O)c1ccc(C#N)cc1C(F)(F)F [A48-1]
[2]; dosage 250 g/ha
  Effect (TRZAS): +
[3]; dosage 25 g/ha
  Effect (BRSNS): +++

## CN(C)N(Cc1cccc(Cl)c1)C(=O)c1ccccc1Cl [A10-2]
[2]; dosage 250 g/ha
  Effect (TRZAS): +
[3]; dosage 25 g/ha
  Effect (BRSNS): ++
